# Experimental data: patent US20230364172A1, “MODULATION OF SOLUBILITY, PALATABILITY, ABSORPTION, AND BIOAVAILABILITY OF MITRAGYNA SPECIOSA-DERIVED COMPOUNDS FOR ORAL AND BUCCAL DELIVERY” (Syncotrance, LLC, priority 2022, published 2023)
# Where “and” joins values, the source holds several entries; their conditions need not be identical. Equal entries are not always repeated. Structures can show the parent of a compound that is named as a salt. Where two headings read alike, the source gives them in different places.
# Key:
# [1] = cited from earlier work
# [2] = Premix vs water for taste masking of sports nutrition active ingredients (Example M); details: 1.5 g dose in Premix
# Description: The supplements were suspended in a premix or water for reference. The active ingredients and their dosages were selected to simulate a sports nutrition drink prepared in a small blender (200 ml volume).
# The panelists were asked to rate aversiveness/palatability and provide a brief description of off-flavors.
# [3] = Physicochemical properties of mitragynine (pKa, Log P, aqueous solubility), literature
# From the text: Mitragynine is an indole alkaloid comprising 66% of total alkaloids in extracts of Mitragyna speciosa leaves (Adkins, J. E., Boyer, E. W., McCurdy, C. R., 2011. Mitragyna speciosa, a psychoactive tree from Southeast Asia with opioid activity. Curr. Top. Med. Chem. 11, 1165-1175) (Ponglux, D., Wongseripipatana, S., Takayama, H., Kikuchi, M., Kurihara, M., Kitajima, M., Aimi, N., Sakai, S., 1994. A new indole alkaloid, 7 alpha-Hydroxy-7H-mitragynine, from Mitragyna speciosa in Thailand. Planta Med. 60, 580-581.). […] The compound is moderately stable at neutral pH (^˜3.5% degradation after 3 h) but degraded at pH 1.2 (by 26% degradation after 1-2 hr) (Manda, V. K., Avula, B., Ali, Z., Khan, I. A., Walker, L. A., Khan, S. I., 2014. Evaluation of in vitro absorption, distribution, metabolism, and excretion (ADME) properties of mitragynine, 7-hydroxymitragynine, and mitraphylline. Planta Med. 80, 568-576) (Ramanathan, S., Parthasarathy, S., Murugaiyah, V., Magosso, E., Tan, S. C., Mansor, S. M., 2015. Understanding the physicochemical properties of mitragynine, a principal alkaloid of Mitragyna speciosa, for preclinical evaluation. Molecules 20, 4915-4927). […]
# [4] = cited from earlier work; remark: listed apart in the source
# [5] = cited from earlier work; remark: listed apart in the source
# [6] = rats; cited from earlier work
# [7] = Phase separation of Kratom/Premix emulsion by visual observation (Example C)
# [8] = 1% w/v, 0.1 mM quinine hydrochloride solution; cited from earlier work
compound,measurement,setting,value
CC[C@@H]1CN2CCc3c([nH]c4cccc(OC)c34)[C@H]2C[C@@H]1/C(=C\OC)C(=O)OC (stereo in doubt) [mitragynine hydrochloride],absolute oral bioavailability of mitragynine,"[1]; rats, oral in comparison to intravenous administration",17.0%
NCC(=O)[O-].NCC(=O)[O-].[Mg+2] [Magnesium Glycinate],pH in Premix,[2],flavors. pH 10.3 caused
CC[C@@H]1CN2CCc3c([nH]c4cccc(OC)c34)[C@@H]2C[C@@H]1/C(=C\OC)C(=O)OC [Mitragynine],Biopharmaceutical Classification System (BCS) class,[3],Class II
same,pKa,[4],8.1
same,solubility in aqueous media,[4]; pH 4,130 μM and 51.8 μg/ml
same,solubility in a saliva type fluid,[4]; pH 6.5,64.6±1.2 μcg/mL
same,solubility in aqueous media,[4]; pH 7,83 μM and 33.1 μg/ml
same,degradation,"[5]; neutral pH, after 3 h",~3.5%
same,degradation,"[5]; pH 1.2, after 1-2 hr",26%
same,% AUCbrain/AUCplasma,[6],65.8±4.5%
same,bioavailability,"[1]; oral administration in rats, calculated from other studies by Ya et al.",~21%
Polysorbate 80,phase separation,"[7]; Polysorbate 80 0.3% w/v final, added to Final Mix",separated
same,phase separation,"[7]; Polysorbate 80 0.3% w/v final, added to liquid extract",separated
same,phase separation,"[7]; Polysorbate 80 0.3% w/v final, added to premix",separated
same,phase separation,"[7]; Polysorbate 80 0.5% w/v final, added to Final Mix",separated
same,phase separation,"[7]; Polysorbate 80 0.5% w/v final, added to liquid extract",stable
same,phase separation,"[7]; Polysorbate 80 0.5% w/v final, added to premix",separated
same,phase separation,"[7]; Polysorbate 80 1% w/v final, added to Final Mix",separated
same,phase separation,"[7]; Polysorbate 80 1% w/v final, added to liquid extract",stable
same,phase separation,"[7]; Polysorbate 80 1% w/v final, added to premix",stable
same,phase separation,"[7]; Polysorbate 80 1.5% w/v final, added to Final Mix",stable
same,phase separation,"[7]; Polysorbate 80 1.5% w/v final, added to liquid extract",stable
same,phase separation,"[7]; Polysorbate 80 1.5% w/v final, added to premix",stable
phosphatidic acid,bitterness-depressing effect due to adsorption,[8],36.1%
same,bitterness-depressing effect due to suppression at the receptor site,[8],45.6%
same,suppression of bitterness,[8],81.7%
